In EP1037886B1, “TRIAZINE ANGIOGENESIS INHIBITORS” (Abbott Laboratories, priority 1997, dated 1999):

Tested on: Human Microvascular Endothelial Cells (HMVEC)
Experiment: Endothelial cell migration assay (bFGF induced, modified Boyden chamber)
Assay type: cell-based
Conditions: 600 nM test substance, 4 hours at 37 °C, percent inhibition of migration compared to a positive control
Procedure: The endothelial cell migration assay was performed essentially as described by Polverini, P.J. et al., Methods Enzymol, 198: 440-450 (1991). Briefly, Human Microvascular Endothelial Cells (HMVEC) were starved overnight in DMEM (Dulbecco's Modified Eagle Medium) containing 0.1% bovine serum albumin (BSA). Cells were then harvested with trypsin and resuspended in DMEM with 0.1% BSA at a concentration of 1.5 x 10^6 cells/mL. Cells were added to the bottom of a 48-well modified Boyden chamber (Nucleopore Corporation, Cabin John, MD). The chamber was assembled and inverted, and cells were allowed to attach for 2 hours at 37 °C to polycarbonate chemotaxis membranes (5 µm pore size) that had been soaked in 0.1% gelatin overnight and dried. The chamber was then reinverted and basic fibroblast growth factor (bFGF) and test substances were added to the wells of the upper chamber (to a total volume of 50 µL); the apparatus was then incubated for 4 hours at 37 °C. Membranes were recovered, fixed and stained (DiffQuick, Fisher Scientific, Pittsburgh, PA) and the number of cells that had migrated to the upper chamber per 10 high power fields were counted. Background migration to DMEM + 0.1% BSA was subtracted and the data reported as the number of cells migrated per 10 high power fields (400X) or when results from multiple experiments were combined, as the percent inhibition of migration compared to a positive control.

For `Nc1nc(N)nc(C23CC4CC(CC(C4)C2)C3)n1` [Example 52, 6-(tricyclo[3.3.1.1^3.7]decan-1-yl)-1,3,5-triazine-2,4-diamine], the “% inhibition at (nM)” value was 100 (600) %.

Same assay, conditions: Homo sapiens, 200 nM test substance, 4 hours at 37 °C, percent inhibition of migration compared to a positive control

`Nc1nc(N)nc(C2CC3CCC2C3)n1` (stereo not drawn) [Example 65, 6-(bicyclo[2.2.1]hept-2-yl)-1,3,5-triazine-2,4-diamine] showed an inhibition at 0.2 µM of 32%.

Same assay, conditions: Homo sapiens, 500 nM test substance, 4 hours at 37 °C, percent inhibition of migration compared to a positive control

In order of falling inhibition at 0.5 µM:
1. Nc1nc(N)nc(C2CCN(C(=O)c3ccccc3)CC2)n1 [Example 74, 6-(1-benzoyl-4-piperidinyl)-1,3,5-triazine-2,4-diamine]  82%
2. CNc1nc(NC)nc(-c2ccc(-c3ccccc3)cc2)n1 [Example 63, 6-[1,1'-biphenyl]-4-yl-N,N'-dimethyl-1,3,5-triazine-2,4-diamine]  79%
3. Cc1ccc(-c2nc(N)nc(N)n2)cn1 [Example 68, 6-(6-methyl-3-pyridinyl)-1,3,5-triazine-2,4-diamine]  73%
4. CC(=O)Nc1nc(N)nc(-c2ccc(S(=O)(=O)c3ccccc3)cc2)n1 [Example 77, N-acetyl-6-[4-(phenylsulfonyl)phenyl]-1,3,5-triazine-2,4-diamine]  50%
5. Nc1nc(N)nc(-c2ccc(Cl)nc2)n1 [Example 69, 6-(6-chloro-3-pyridinyl)-1,3,5-triazine-2,4-diamine]  39%
6. CC(=O)Nc1nc(NC(C)=O)nc(-c2ccc(S(=O)(=O)c3ccccc3)cc2)n1 [Example 76, N,N'-diacetyl-6-[4-(phenylsulfonyl)phenyl]-1,3,5-triazine-2,4-diamine]  33%
7. Nc1nc(N)nc(C2CCN(Cc3ccccc3)CC2)n1 [Example 75, 6-[1-(phenylmethyl)-4-piperidinyl]-1,3,5-triazine-2,4-diamine]  16%

Same assay, conditions: Homo sapiens, 600 nM test substance, 4 hours at 37 °C, percent inhibition of migration compared to a positive control

In order of falling inhibition at 0.6 µM:
1. Nc1nc(N)nc([C@H]2CC[C@H](c3ccccc3)CC2)n1 [Example 3, trans-6-(4-phenylcyclohexyl)-1,3,5-triazine-2,4-diamine]  100%
2. Nc1nc(N)nc(-c2ccc(-c3ccc([N+](=O)[O-])cc3)cc2)n1 [Example 7, 6-(4'-nitro[1,1'-biphenyl]-4-yl)-1,3,5-triazine-2,4-diamine]  100%
3. Nc1nc(N)nc(-c2ccc(S(=O)(=O)c3ccccc3)cc2)n1 [Example 58, 6-[4-(phenylsulfonyl)phenyl]-1,3,5-triazine-2,4-diamine]  100%
4. Nc1nc(N)nc(-c2cnccn2)n1 [Example 60, 6-pyrazinyl-1,3,5-triazine-2,4-diamine]  100%
5. CC1(C)C=Cc2cc(-c3nc(N)nc(N)n3)ccc2O1 [Example 50, 6-(2,2-dimethyl-2H-1-benzopyran-6-yl)-1,3,5-triazine-2,4-diamine]  100%
6. Nc1nc(N)nc(C2COc3ccccc3O2)n1 (stereo not drawn) [Example 51, 6-(2,3-dihydro-1,4-benzodioxin-2-yl)-1,3,5-triazine-2,4-diamine]  100%
7. Nc1nc(N)nc(-c2ccccc2-c2ccccc2)n1 [Example 6, 6-[1,1'-biphenyl]-2-yl-1,3,5-triazine-2,4-diamine]  95%
8. Nc1nc(N)nc(-c2nccc3ccccc23)n1 [Example 53, 6-(1-isoquinolinyl)-1,3,5-triazine-2,4-diamine]  85%
9. Nc1nc(N)nc(-c2ccc3c(c2)OCCO3)n1 [Example 55, 6-(2,3-dihydro-1,4-benzodioxin-6-yl)-1,3,5-triazine-2,4-diamine]  84%
10. Nc1nc(N)nc(-c2ccc3ccccc3n2)n1 [Example 47, 6-(2-quinolinyl)-1,3,5-triazine-2,4-diamine]  65%
11. Nc1nc(N)nc(-c2cccc(-n3cccc3)c2)n1 [Example 4, 6-[3-(1H-pyrrol-1-yl)phenyl]-1,3,5-triazine-2,4-diamine]  62%
12. Nc1nc(N)nc(-c2cnc3ccccc3c2)n1 [Example 48, 6-(3-quinolinyl)-1,3,5-triazine-2,4-diamine]  55%
13. Nc1nc(N)nc(-c2cc(Cl)ccc2Cl)n1 [Irsogladine, reference compound]  53%
14. Nc1nc(N)nc(N2CCC3(CC2)OCCO3)n1 [Example 13, 6-(1,4-dioxa-8-azaspiro[4,5]dec-8-yl)-1,3,5-triazine-2,4-diamine]  53%
15. Nc1nc(N)nc(-c2ccc(NC(=O)Nc3ccccc3)cc2)n1 [Example 12, N-[4-(4,6-diamino-1,3,5-triazin-2-yl)phenyl]-N'-phenyl urea]  36%
16. CCCCC[C@H]1CC[C@H](c2ccc(-c3nc(N)nc(N)n3)cc2)CC1 [Example 8, trans-6-[4-(4-pentylcyclohexyl)phenyl]-1,3,5-triazine-2,4-diamine]  30%
17. Nc1nc(N)nc(C23CCN(CC2)CC3)n1 [Example 56, 6-(1-azabicyclo[2.2.2]octan-4-yl)-1,3,5-triazine-2,4-diamine]  30%
18. Nc1nc(N)nc(-c2ccc(NC(=O)NC3CCCCC3)cc2)n1 [Example 10, N-cyclohexyl-N'-[4-(4,6-diamino-1,3,5-triazin-2-yl)phenyl]urea]  29%
19. Nc1nc(N)nc(-c2ccc(Oc3ccccc3)cc2)n1 [Example 9, 6-(4-phenoxyphenyl)-1,3,5-triazine-2,4-diamine]  29%
20. Nc1nc(N)nc(C2CN(C(c3ccccc3)c3ccccc3)C2)n1 [Example 1, 6-[1-(diphenylmethyl)-3-azetidinyl]-1,3,5-triazine-2,4-diamine]  20%
21. Nc1nc(N)nc(Cc2cc3ccccc3s2)n1 [Example 49, 6-(benzo[b]thien-2-ylmethyl)-1,3,5-triazine-2,4-diamine]  14%
